According to the supplement of paper PMC11061612:

Tests used:
Experiment in all cases: combination Emax (second highest fraction inhibited in the dose matrix, 72 h); higher = more inhibition; extreme values may be limits of the assay
GI-1 (Glioblastoma) = tested on: GI-1 (Glioblastoma)
In short: (§1)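 Cell lines grown in DMEM/F12 or RPMI with 10% FBS were plated in 1536-well plates and held 24 hours at 37°C, 5% CO2 before 72 hours of exposure to two-drug dose matrices, with DMSO typically at 0.2%. CellTiter-Glo 2.0 luminescence gave viability, which was converted to inhibition. Vehicle wells were set to 0 and blank wells to 1. Combination Emax is the second-highest inhibition in the matrix, and Bliss excess is the observed combination effect minus the expected EA + EB − EA·EB, where EA and EB are the single-agent effects.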

[1] = tested on: ASH-3 (Thyroid Gland Carcinoma)
In short: as §1

[2] = tested on: HSC-2 (Oral Cavity Carcinoma)
In short: as §1

A704 (Kidney Carcinoma) = tested on: A704 (Kidney Carcinoma)
In short: as §1

[3] = tested on: NCI-H2347 (Lung Adenocarcinoma)
In short: as §1

BT-20 (Breast Carcinoma) = tested on: BT-20 (Breast Carcinoma)
In short: as §1

[4] = tested on: EBC-1 (Squamous Cell Lung Carcinoma)
In short: as §1

[5] = tested on: NCI-N87 (Gastric Carcinoma)
In short: as §1

[6] = tested on: SCC-9 (Oral Cavity Carcinoma)
In short: as §1

[7] = tested on: SCC-3 (B-Cell Non-Hodgkin's Lymphoma)
In short: as §1

NH-12 (Neuroblastoma) = tested on: NH-12 (Neuroblastoma)
In short: as §1

[8] = tested on: BV-173 (Chronic Myelogenous Leukemia)
In short: as §1

[9] = tested on: KINGS-1 (Low Grade Glioma)
In short: as §1

[10] = tested on: KLE (Endometrial Carcinoma)
In short: as §1

[11] = tested on: H-EMC-SS (Chondrosarcoma)
In short: as §1

[12] = tested on: KP-2 (Pancreatic Carcinoma)
In short: as §1

RPMI-7951 (Melanoma) = tested on: RPMI-7951 (Melanoma)
In short: as §1

[13] = tested on: SNU-C1 (Colorectal Carcinoma)
In short: as §1

[14] = tested on: KU-19-19 (Bladder Carcinoma)
In short: as §1

[15] = tested on: PF-382 (T-Lymphoblastic Leukemia)
In short: as §1

| SMILES | combination Emax (GI-1 (Glioblastoma)) | combination Emax [1] | combination Emax [2] | combination Emax (A704 (Kidney Carcinoma)) | combination Emax [3] | combination Emax (BT-20 (Breast Carcinoma)) | combination Emax [4] | combination Emax [5] | combination Emax [6] | combination Emax [7] | combination Emax (NH-12 (Neuroblastoma)) | combination Emax [8] | combination Emax [9] | combination Emax [10] | combination Emax [11] | combination Emax [12] | combination Emax (RPMI-7951 (Melanoma)) | combination Emax [13] | combination Emax [14] | combination Emax [15] |
| --- | --- | --- | --- | --- | --- | --- | --- | --- | --- | --- | --- | --- | --- | --- | --- | --- | --- | --- | --- | --- |
| NC1(C(=O)N[C@@H](CCO)c2ccc(Cl)cc2)CCN(c2ncnc3[nH]ccc23)CC1 [Capivasertib] + CC(=O)c1c(C)c2cnc(Nc3ccc(N4CCNCC4)cn3)nc2n(C2CCCC2)c1=O [Palbociclib] (first compound max 10 µM, 7x7, partner max 10 µM) | 0.626 | 0.581 | 0.582 | 0.665 | 0.271 | 0.81 | 0.612 | 0.76 | 0.289 | 0.479 | 0.519 | 0.87 | 0.414 | 0.377 | 0.512 | 0.451 | 0.854 | 0.549 | 0.536 | 0.743 |
| CC(=O)c1c(C)c2cnc(Nc3ccc(N4CCNCC4)cn3)nc2n(C2CCCC2)c1=O [Palbociclib] + Cn1cnc2c(F)c(Nc3ccc(Br)cc3Cl)c(C(=O)NOCCO)cc21 [Selumetinib] (first compound max 10 µM, 7x7, partner max 10 µM) | 0.0397 | 0.403 | 0.391 | 0.705 | 0.38 | 0.361 | 0.944 | 0.498 | 0.397 | 0.503 | 0.592 | 0.733 | 0.232 | 0.31 | 0.414 | 0.376 | 0.546 | 0.598 | 0.935 | 0.761 |
| CC1(C)CCC(CN2CCN(c3ccc(C(=O)NS(=O)(=O)c4ccc(NCC5CCOCC5)c([N+](=O)[O-])c4)c(Oc4cnc5[nH]ccc5c4)c3)CC2)=C(c2ccc(Cl)cc2)C1 [Venetoclax] + C[C@@H]1COCCN1C2=NC(=NC(=C2)C3(CC3)[S@](=N)(=O)C)C4=C5C=CNC5=NC=C4 [AZD6738] (first compound max 1 µM, 7x7, partner max 10 µM) | 0.918 | 0.57 | 0.824 | 0.48 | 0.402 | 0.491 | 0.514 | 0.736 | 0.342 | 0.938 | 0.968 | 0.954 | 0.344 | 0.515 | 0.347 | 0.277 | 0.887 | 0.366 | 0.745 | 0.927 |
| CCN(CCO)CCCOc1ccc2c(Nc3cc(CC(=O)Nc4cccc(F)c4)[nH]n3)ncnc2c1 [AZD2811] + C[C@@H]1COCCN1C2=NC(=NC(=C2)C3(CC3)[S@](=N)(=O)C)C4=C5C=CNC5=NC=C4 [AZD6738] (first compound max 1 µM, 7x7, partner max 10 µM) | 0.922 | 0.486 | 0.68 | 0.43 | 0.343 | 0.443 | 0.32 | 0.744 | 0.336 | 0.973 | 0.858 | 0.994 | 0.302 | 0.387 | 0.412 | 0.12 | 0.856 | 0.435 | 0.779 | 0.916 |
| NC1(C(=O)N[C@@H](CCO)c2ccc(Cl)cc2)CCN(c2ncnc3[nH]ccc23)CC1 [Capivasertib] + CCN(CCO)CCCOc1ccc2c(Nc3cc(CC(=O)Nc4cccc(F)c4)[nH]n3)ncnc2c1 [AZD2811] (first compound max 10 µM, 7x7, partner max 1 µM) | 0.754 | 0.451 | 0.707 | 0.324 | 0.231 | 0.765 | 0.395 | 0.73 | 0.275 | 0.309 | 0.728 | 0.915 | 0.429 | 0.332 | 0.488 | 0.132 | 0.766 | 0.588 | 0.515 | 0.916 |
| CN(CCO)CC[C@H](CSc1ccccc1)Nc1ccc(S(=O)(=O)NC(=O)c2ccc(N3CCC([C@@H](O)c4ccccc4-c4ccc(Cl)cc4)CC3)cc2)cc1S(=O)(=O)C(F)(F)F [AZD4320] + Cn1cnc2c(F)c(Nc3ccc(Br)cc3Cl)c(C(=O)NOCCO)cc21 [Selumetinib] (first compound max 1 µM, 7x7, partner max 3 µM) | 0.801 | 0.728 | 0.768 | 0.642 | 0.68 | 0.746 | 0.991 | 0.604 | 0.67 | 0.546 | 0.998 | 0.963 | 0.481 | 0.423 | 0.691 | 0.962 | 0.526 | 0.944 | 0.937 | 1 |
